Measured values from patent US9670261B2 (Sanofi, priority 2012, dated 2017).
*1 amine or outer side, *2 acyl side, *3 side chain or, on linkers, in order; H or OH if unused. Where a SMILES comes first, the peptide text is derived from it. Side-chain parts run from the residue outwards. [ ]: non-standard residue; d: D form. The star is where a group is joined. γGlu = O=C(O)[C@H](CCC(=O)[*:2])N[*:1]; Palmitoyl = CCCCCCCCCCCCCCCC(=O)*; Aib = CC(C)(N)C(=O)O

Assays:
human glucagon receptor = target: T1, human glucagon receptor (Homo sapiens, UniProt P47871); experiment: cAMP response (HTRF) of HEK-293 cells stably expressing human glucagon receptor; assay type: cell-based; settings: Table 7; cAMP formation; read-out: EC50 hGLUC R
T1 construct: expressed in transfected cells
Protocol: cAMP content of cells was determined using a kit from Cisbio Corp. (cat. no. 62AM4PEC) based on HTRF (Homogenous Time Resolved Fluorescence). For preparation, cells were split into T175 culture flasks and grown overnight to near confluency in medium (DMEM/10% FBS). Medium was then removed and cells washed with PBS lacking calcium and magnesium, followed by proteinase treatment with accutase (Sigma-Aldrich cat. no. A6964). Detached cells were washed and resuspended in assay buffer (1×HBSS; 20 mM HEPES, 0.1% BSA, 2 mM IBMX) and cellular density determined. They were then diluted to 400000 cells/ml and 25 μl-aliquots dispensed into the wells of 96-well plates. For measurement, 25 μl of test compound in assay buffer was added to the wells, followed by incubation for 30 minutes at room temperature.

human GLP-1 receptor = target: T2, human GLP-1 receptor (Homo sapiens, UniProt P43220); experiment: cAMP response (HTRF) of HEK-293 cells stably expressing human GLP-1 receptor; assay type: cell-based; settings: Table 7; cAMP formation; read-out: EC50 hGLP-1 R
T2 construct: expressed in transfected cells
Procedure, shortened: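 After near-confluent growth in DMEM with 10% FBS, cells were washed in Ca/Mg-free PBS, lifted with accutase and diluted to 400000 cells/ml in IBMX (2 mM)-containing HEPES-buffered HBSS with 0.1% BSA. Compounds were applied for 30 minutes at room temperature before homogeneous time-resolved fluorescence quantitation of cAMP.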

[1] = Pharmacokinetic testing in mice, s.c.; settings: mouse, plasma, sc, 1 mg/kg
Protocol: Mice were dosed 1 mg/kg subcutaneously (s.c.). The mice were sacrified and blood samples were collected after 0.25, 0.5, 1, 2, 4, 8, 16 and 24 hours post application. Plasma samples were analyzed after protein precipitation via liquid chromatography mass spectrometry (LC/MS). PK parameters and half-life were calculated using WinonLin Version 5.2.1 (non-compartment model).

T1 sequence (P47871 26-477): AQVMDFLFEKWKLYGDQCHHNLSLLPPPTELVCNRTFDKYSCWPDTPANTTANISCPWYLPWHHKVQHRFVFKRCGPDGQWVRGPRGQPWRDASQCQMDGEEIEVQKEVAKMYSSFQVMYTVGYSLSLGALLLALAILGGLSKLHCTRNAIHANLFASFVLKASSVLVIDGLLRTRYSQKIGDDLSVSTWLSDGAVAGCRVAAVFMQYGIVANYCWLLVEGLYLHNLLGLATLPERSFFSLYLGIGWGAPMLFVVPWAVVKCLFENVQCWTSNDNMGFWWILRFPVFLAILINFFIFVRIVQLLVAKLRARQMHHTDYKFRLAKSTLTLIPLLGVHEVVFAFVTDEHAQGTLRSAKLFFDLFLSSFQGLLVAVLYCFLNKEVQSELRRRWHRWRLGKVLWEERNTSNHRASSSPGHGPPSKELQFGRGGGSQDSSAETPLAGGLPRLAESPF
T2 sequence (P43220 24-463): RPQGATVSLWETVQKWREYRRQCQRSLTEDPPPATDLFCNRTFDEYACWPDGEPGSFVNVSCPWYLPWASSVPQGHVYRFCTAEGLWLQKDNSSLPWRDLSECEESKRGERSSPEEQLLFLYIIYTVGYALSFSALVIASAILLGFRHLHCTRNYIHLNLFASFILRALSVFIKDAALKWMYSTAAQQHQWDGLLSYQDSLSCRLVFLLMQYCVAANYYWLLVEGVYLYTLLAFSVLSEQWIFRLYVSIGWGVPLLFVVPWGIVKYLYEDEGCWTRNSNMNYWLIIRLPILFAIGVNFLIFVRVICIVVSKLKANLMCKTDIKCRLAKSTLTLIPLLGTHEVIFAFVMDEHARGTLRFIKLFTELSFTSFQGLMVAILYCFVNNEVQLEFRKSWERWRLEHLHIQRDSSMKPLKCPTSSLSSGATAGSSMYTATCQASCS

Q: For `CCCCCCCCCCCCCCCC(=O)N[C@@H](CCC(=O)NCCCC[C@H](NC(=O)[C@H](CCC(N)=O)NC(=O)[C@@H](NC(=O)[C@H](CO)NC(=O)[C@H](CC(C)C)NC(=O)[C@H](CC(=O)O)NC(=O)[C@H](CO)NC(=O)[C@@H](NC(=O)[C@H](Cc1ccccc1)NC(=O)[C@@H](NC(=O)CNC(=O)[C@H](CCC(=O)O)NC(=O)C(C)(C)NC(=O)[C@@H](N)Cc1ccc(O)cc1)[C@@H](C)O)[C@@H](C)O)[C@@H](C)CC)C(=O)N[C@@H](CC(=O)O)C(=O)N[C@@H](CO)C(=O)N[C@@H](CCCNC(=N)N)C(=O)N[C@@H](C)C(=O)N[C@@H](C)C(=O)N[C@@H](CCC(N)=O)C(=O)N[C@@H](CC(=O)O)C(=O)N[C@@H](Cc1ccccc1)C(=O)N[C@H](C(=O)N[C@@H](CCC(=O)O)C(=O)N[C@@H](Cc1c[nH]c2ccccc12)C(=O)N[C@@H](CC(C)C)C(=O)N[C@@H](CCCCN)C(=O)N[C@@H](C)C(=O)NCC(=O)NCC(=O)N1CCC[C@H]1C(=O)N[C@@H](CO)C(=O)N[C@@H](CO)C(=O)NCC(=O)N[C@@H](C)C(=O)N1CCC[C@H]1C(=O)N1CCC[C@H]1C(=O)N1CCC[C@H]1C(=O)N[C@@H](CO)C(N)=O)[C@@H](C)CC)C(=O)O` [SEQ ID NO: 22, Y-Aib-E-G-T-F-T-S-D-L-S-I-Q-K(γE-x53)-DSRAAQDFIEWLKAGGPSSGAPPPS-NH2] (H-Y[Aib]EGTFTSDLSIQK([γGlu-Palmitoyl])DSRAAQDFIEWLKAGGPSSGAPPPS-NH2), which EC50 (human glucagon receptor) is on record?
A: The EC50 was 11.6 nM.

Q: For `CCCCCCCCCCCCCCCC(=O)N[C@@H](CCC(=O)NCCCC[C@H](NC(=O)[C@H](CCC(N)=O)NC(=O)[C@@H](NC(=O)[C@H](CO)NC(=O)[C@H](CC(C)C)NC(=O)[C@H](CC(=O)O)NC(=O)[C@H](CO)NC(=O)[C@@H](NC(=O)[C@H](Cc1ccccc1)NC(=O)[C@@H](NC(=O)CNC(=O)[C@H](CCC(=O)O)NC(=O)C(C)(C)NC(=O)[C@@H](N)Cc1ccc(O)cc1)[C@@H](C)O)[C@@H](C)O)[C@@H](C)CC)C(=O)N[C@@H](CCC(=O)O)C(=O)N[C@@H](CCCCN)C(=O)N[C@@H](CCCNC(=N)N)C(=O)N[C@@H](C)C(=O)N[C@@H](C)C(=O)N[C@@H](CCC(N)=O)C(=O)N[C@@H](CCC(=O)O)C(=O)N[C@@H](Cc1ccccc1)C(=O)N[C@H](C(=O)N[C@@H](CCC(=O)O)C(=O)N[C@@H](Cc1c[nH]c2ccccc12)C(=O)N[C@@H](CC(C)C)C(=O)N[C@@H](CCCCN)C(=O)N[C@@H](C)C(=O)NCC(=O)NCC(=O)N1CCC[C@H]1C(=O)N[C@@H](CO)C(=O)N[C@@H](CO)C(=O)NCC(=O)N[C@@H](C)C(=O)N1CCC[C@H]1C(=O)N1CCC[C@H]1C(=O)N1CCC[C@H]1C(=O)N[C@@H](CO)C(N)=O)[C@@H](C)CC)C(=O)O` [SEQ ID NO: 34, Y-Aib-E-G-T-F-T-S-D-L-S-I-Q-K(γE-x53)-EKRAAQEFIEWLKAGGPSSGAPPPS-NH2] (H-Y[Aib]EGTFTSDLSIQK([γGlu-Palmitoyl])EKRAAQEFIEWLKAGGPSSGAPPPS-NH2), which EC50 (human GLP-1 receptor) is on record?
A: The EC50 was 0.0046 nM.

Q: What about the EC50 (human glucagon receptor) of the same molecule?
A: The EC50 was 11.6 nM.

Q: What about the Cmax [1] of the same molecule?
A: The Cmax was 5130 ng/mL.

Q: What about the half-life [1] of the same molecule?
A: The half-life was 2.8 h.
